Measurements taken from ChEMBL document CHEMBL5649167, “The SUV4-20 inhibitor A-196 verifies a role for epigenetics in genomic integrity” (Nat Chem Biol, 2017).
The source made the active and inactive calls. No cut-off for these calls is given here.

Experiments:
[1] = biological target: Alpha-2A adrenergic receptor (Homo sapiens) (UniProt P08913); test: Inhibition of human Alpha-2A adrenergic receptor in stable Canis lupus familiaris MDCK cells at 10 uM relative to control; assay type: cell-based
[2] = biological target: Beta-2 adrenergic receptor (Homo sapiens) (UniProt P07550); test: Inhibition of human Beta-2 adrenergic receptor at 10 uM relative to control
[3] = biological target: Epidermal growth factor receptor (Homo sapiens) (UniProt P00533); test: Inhibition of human EGFR at 10 uM relative to control
[4] = biological target: Glycogen synthase kinase-3 beta (Homo sapiens) (UniProt P49841); test: Inhibition of human GSK3beta at 10 uM relative to control
[5] = biological target: 5-hydroxytryptamine receptor 7 (Homo sapiens) (UniProt P34969); test: Inhibition of human 5-HT7 at 10 uM relative to control
[6] = biological target: D(1A) dopamine receptor (Homo sapiens) (UniProt P21728); test: Inhibition of human D(1A) dopamine receptor at 10 uM relative to control
[7] = biological target: Type-1 angiotensin II receptor (Homo sapiens) (UniProt P30556); test: Inhibition of human AT1 at 10 uM relative to control
Chain of Type-1 angiotensin II receptor (Homo sapiens) (P30556 whole entry): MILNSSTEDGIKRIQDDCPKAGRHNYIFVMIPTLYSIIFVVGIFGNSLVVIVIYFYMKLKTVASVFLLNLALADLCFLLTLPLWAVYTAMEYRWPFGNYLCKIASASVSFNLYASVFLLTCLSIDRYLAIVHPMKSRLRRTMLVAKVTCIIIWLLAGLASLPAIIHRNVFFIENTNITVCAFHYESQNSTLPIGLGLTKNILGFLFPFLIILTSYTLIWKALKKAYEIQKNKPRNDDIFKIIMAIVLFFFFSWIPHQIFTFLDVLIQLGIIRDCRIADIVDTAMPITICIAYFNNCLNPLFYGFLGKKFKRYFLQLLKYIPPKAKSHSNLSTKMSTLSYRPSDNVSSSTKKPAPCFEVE

[8] = biological target: Histone-lysine N-methyltransferase 2A (Homo sapiens) (UniProt Q03164); test: Inhibition of MLL1 (unknown origin) using Biotin-tagged H4K20me1 and [3H-SAM] as substrate at 1 to 10 uM incubated for 2 hrs by scintillation proximity assay; details: dose 1-10 µM
[9] = biological target: 5-hydroxytryptamine receptor 1D (Homo sapiens) (UniProt P28221); test: Inhibition of human 5-HT1D expressed in HEK293T cells at 10 uM relative to control; assay type: cell-based
[10] = biological target: Mu-type opioid receptor (Homo sapiens) (UniProt P35372); test: Inhibition of human Mu-type opioid receptor at 10 uM relative to control
Chain of Mu-type opioid receptor (Homo sapiens) (P35372 whole entry): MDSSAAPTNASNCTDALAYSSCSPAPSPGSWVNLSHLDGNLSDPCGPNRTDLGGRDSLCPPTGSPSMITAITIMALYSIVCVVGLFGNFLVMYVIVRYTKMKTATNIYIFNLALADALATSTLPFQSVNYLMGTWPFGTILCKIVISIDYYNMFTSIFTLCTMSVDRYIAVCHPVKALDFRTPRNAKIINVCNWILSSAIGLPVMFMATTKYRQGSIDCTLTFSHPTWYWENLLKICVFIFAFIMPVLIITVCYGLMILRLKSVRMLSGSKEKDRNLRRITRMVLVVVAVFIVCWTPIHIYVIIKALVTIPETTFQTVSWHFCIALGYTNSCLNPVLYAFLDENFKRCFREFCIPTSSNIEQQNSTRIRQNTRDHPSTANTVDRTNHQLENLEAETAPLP

[11] = biological target: Delta-type opioid receptor (Homo sapiens) (UniProt P41143); test: Inhibition of human Delta-type opioid receptor at 10 uM relative to control
[12] = biological target: 5-hydroxytryptamine receptor 2B (Homo sapiens) (UniProt P41595); test: Inhibition of human 5-HT2B receptor expressed in stable HEK cells at 10 uM relative to control; assay type: cell-based
[13] = biological target: Histone-lysine N-methyltransferase SUV39H1 (Homo sapiens) (UniProt O43463); test: Inhibition of SUV39H1 (unknown origin) using Biotin-tagged H4K20me1 and [3H-SAM] as substrate at 1 to 10 uM incubated for 2 hrs by scintillation proximity assay; details: dose 1-10 µM
[14] = biological target: Histone-lysine N-methyltransferase, H3 lysine-79 specific (Homo sapiens) (UniProt Q8TEK3); test: Inhibition of DOT1L (unknown origin) at 1 to 10 uM incubated for 1 hrs by scintillation proximity assay; details: dose 1-10 µM
[15] = biological target: Neuromedin-K receptor (Homo sapiens) (UniProt P29371); test: Inhibition of human Neuromedin-K receptor at 10 uM relative to control
Chain of Neuromedin-K receptor (Homo sapiens) (P29371 whole entry): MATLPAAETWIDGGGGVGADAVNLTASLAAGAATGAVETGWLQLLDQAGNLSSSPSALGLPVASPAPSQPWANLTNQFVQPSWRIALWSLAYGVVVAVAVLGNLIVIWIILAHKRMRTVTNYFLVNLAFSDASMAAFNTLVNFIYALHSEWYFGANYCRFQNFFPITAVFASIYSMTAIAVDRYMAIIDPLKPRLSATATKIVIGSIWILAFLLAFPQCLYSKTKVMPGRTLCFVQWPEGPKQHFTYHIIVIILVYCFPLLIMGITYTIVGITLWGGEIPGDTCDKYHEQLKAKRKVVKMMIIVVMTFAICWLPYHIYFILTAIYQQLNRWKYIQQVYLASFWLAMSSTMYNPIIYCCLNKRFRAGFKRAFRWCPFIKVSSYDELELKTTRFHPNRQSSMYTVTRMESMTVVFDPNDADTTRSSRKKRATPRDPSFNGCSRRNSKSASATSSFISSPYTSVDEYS

[16] = biological target: Alpha-2B adrenergic receptor (Homo sapiens) (UniProt P18089); test: Inhibition of human Alpha-2B adrenergic receptor expressed in HEK293T cells at 10 uM relative to control; assay type: cell-based
Chain of Alpha-2B adrenergic receptor (Homo sapiens) (P18089 whole entry): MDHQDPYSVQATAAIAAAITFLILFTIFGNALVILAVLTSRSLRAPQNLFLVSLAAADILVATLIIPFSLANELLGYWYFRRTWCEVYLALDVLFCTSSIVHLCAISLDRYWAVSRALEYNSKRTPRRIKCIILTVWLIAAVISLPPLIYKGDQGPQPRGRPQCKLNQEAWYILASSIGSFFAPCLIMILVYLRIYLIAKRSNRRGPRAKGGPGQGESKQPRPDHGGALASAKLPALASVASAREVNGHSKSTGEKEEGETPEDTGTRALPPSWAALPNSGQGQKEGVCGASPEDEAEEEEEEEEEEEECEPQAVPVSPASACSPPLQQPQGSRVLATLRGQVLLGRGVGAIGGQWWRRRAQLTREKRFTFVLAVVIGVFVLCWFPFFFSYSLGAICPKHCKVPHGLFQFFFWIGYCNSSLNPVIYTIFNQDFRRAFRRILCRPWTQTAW

[17] = biological target: Alpha-1A adrenergic receptor (Homo sapiens) (UniProt P35348); test: Inhibition of human Alpha-1A adrenergic receptor at 10 uM relative to control
Chain of Alpha-1A adrenergic receptor (Homo sapiens) (P35348 whole entry): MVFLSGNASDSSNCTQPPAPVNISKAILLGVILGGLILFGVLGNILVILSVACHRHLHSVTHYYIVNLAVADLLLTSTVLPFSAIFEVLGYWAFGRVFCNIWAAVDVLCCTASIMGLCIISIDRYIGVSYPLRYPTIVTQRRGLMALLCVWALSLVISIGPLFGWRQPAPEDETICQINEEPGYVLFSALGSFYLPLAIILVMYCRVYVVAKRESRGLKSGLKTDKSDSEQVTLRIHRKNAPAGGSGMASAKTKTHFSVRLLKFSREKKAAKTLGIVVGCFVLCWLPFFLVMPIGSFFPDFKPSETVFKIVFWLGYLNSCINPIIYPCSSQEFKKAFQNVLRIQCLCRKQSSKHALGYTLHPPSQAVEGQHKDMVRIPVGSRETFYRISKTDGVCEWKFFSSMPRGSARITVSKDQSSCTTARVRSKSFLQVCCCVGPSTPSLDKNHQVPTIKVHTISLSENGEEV

[18] = biological target: D(4) dopamine receptor (Homo sapiens) (UniProt P21917); test: Inhibition of human D(4) dopamine receptor in stable HEK cells at 10 uM relative to control; assay type: cell-based
Chain of D(4) dopamine receptor (Homo sapiens) (P21917 whole entry): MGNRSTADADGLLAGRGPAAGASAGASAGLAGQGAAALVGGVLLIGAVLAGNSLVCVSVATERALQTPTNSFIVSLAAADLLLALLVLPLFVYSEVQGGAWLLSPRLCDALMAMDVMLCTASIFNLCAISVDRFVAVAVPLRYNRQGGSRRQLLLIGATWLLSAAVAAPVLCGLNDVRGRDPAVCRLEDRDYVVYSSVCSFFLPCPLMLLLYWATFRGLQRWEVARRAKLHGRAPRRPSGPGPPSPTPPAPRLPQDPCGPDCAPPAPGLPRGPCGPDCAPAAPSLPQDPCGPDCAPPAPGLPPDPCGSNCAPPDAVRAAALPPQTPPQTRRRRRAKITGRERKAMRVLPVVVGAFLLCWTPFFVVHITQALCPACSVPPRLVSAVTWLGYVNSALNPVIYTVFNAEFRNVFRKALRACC

[19] = biological target: Histamine H1 receptor (Homo sapiens) (UniProt P35367); test: Inhibition of human HH1R at 10 uM relative to control
U2OS [20] = test: Inhibition of colony formation in human U2OS cells at 1 uM incubated for 48 hrs in the presence of etoposide by cell clonogenic assay; assay type: functional, cell-based
[21] = biological target: 5-hydroxytryptamine receptor 2C (Homo sapiens) (UniProt P28335); test: Inhibition of human 5-HT2C receptor expressed in HEK293T cells at 10 uM relative to control; assay type: cell-based
Chain of 5-hydroxytryptamine receptor 2C (Homo sapiens) (P28335 whole entry): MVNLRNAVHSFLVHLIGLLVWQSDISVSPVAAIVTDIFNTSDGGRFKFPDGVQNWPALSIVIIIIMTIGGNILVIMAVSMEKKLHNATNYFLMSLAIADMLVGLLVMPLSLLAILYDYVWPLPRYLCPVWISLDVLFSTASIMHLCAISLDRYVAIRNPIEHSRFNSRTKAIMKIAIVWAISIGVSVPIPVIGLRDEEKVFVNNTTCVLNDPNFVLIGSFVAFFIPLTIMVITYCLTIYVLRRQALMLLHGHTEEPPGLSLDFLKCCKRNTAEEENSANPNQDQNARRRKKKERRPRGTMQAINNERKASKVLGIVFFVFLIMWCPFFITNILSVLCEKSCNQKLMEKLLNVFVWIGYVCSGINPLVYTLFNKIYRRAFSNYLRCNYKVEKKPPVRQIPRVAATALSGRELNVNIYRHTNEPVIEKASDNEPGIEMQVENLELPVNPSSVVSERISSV

[22] = biological target: Mitogen-activated protein kinase 8 (Homo sapiens) (UniProt P45983); test: Inhibition of human JNK1 at 10 uM relative to control
[23] = biological target: Kappa-type opioid receptor (Homo sapiens) (UniProt P41145); test: Inhibition of human kappa opioid receptor expressed in stable HEK cells at 10 uM relative to control; assay type: cell-based
[24] = biological target: Serine/threonine-protein kinase Sgk1 (Homo sapiens) (UniProt O00141); test: Inhibition of human SGK1 at 10 uM relative to control
[25] = biological target: Beta-3 adrenergic receptor (Homo sapiens) (UniProt P13945); test: Inhibition of human Beta-3 adrenergic receptor expressed in human Flp-In-293 cells at 10 uM relative to control; assay type: cell-based
Chain of Beta-3 adrenergic receptor (Homo sapiens) (P13945 whole entry, looked up): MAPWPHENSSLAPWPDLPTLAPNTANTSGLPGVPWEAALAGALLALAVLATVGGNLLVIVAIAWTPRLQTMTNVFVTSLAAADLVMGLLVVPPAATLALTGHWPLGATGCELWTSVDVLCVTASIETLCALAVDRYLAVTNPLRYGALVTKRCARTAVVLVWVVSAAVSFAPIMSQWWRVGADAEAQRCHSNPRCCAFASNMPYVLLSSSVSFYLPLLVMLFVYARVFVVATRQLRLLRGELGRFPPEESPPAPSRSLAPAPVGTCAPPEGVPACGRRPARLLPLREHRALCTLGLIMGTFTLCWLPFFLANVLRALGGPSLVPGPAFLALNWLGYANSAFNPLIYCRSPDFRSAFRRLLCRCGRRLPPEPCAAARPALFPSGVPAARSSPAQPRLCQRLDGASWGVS

[26] = biological target: C-X-C chemokine receptor type 2 (Homo sapiens) (UniProt P25025); test: Inhibition of human CXCR2 at 10 uM relative to control
[27] = biological target: Muscarinic acetylcholine receptor M3 (Homo sapiens) (UniProt P20309); test: Inhibition of human Muscarinic 3 at 10 uM relative to control
Chain of Muscarinic acetylcholine receptor M3 (Homo sapiens) (P20309 whole entry, looked up): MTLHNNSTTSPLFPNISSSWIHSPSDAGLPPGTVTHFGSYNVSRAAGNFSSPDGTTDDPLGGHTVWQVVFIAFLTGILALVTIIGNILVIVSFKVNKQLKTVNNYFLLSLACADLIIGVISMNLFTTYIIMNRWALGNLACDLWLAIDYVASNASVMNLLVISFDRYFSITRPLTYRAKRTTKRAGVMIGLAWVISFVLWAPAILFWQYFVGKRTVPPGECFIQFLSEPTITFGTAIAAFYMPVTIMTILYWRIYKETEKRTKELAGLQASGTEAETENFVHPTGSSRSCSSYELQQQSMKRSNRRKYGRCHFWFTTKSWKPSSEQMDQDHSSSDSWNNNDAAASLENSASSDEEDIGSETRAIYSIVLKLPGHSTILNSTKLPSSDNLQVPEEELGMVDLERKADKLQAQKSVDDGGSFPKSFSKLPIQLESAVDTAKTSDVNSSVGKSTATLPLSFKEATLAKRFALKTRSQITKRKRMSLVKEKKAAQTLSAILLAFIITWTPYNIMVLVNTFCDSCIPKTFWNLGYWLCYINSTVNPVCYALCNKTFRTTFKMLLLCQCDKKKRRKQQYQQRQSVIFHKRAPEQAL

U2OS [28] = test: Inhibition of colony formation in human U2OS cells at 1 uM incubated for 48 hrs in the presence of CPT by cell clonogenic assay; assay type: functional, cell-based
[29] = biological target: T1, Muscarinic acetylcholine receptor M2 (Homo sapiens) (UniProt P08172); test: Inhibition of human Muscarinic acetylcholine receptor M2 expressed in stable Cricetulus griseus CHO cells at 10 uM relative to control; assay type: cell-based
T1 sequence (whole entry): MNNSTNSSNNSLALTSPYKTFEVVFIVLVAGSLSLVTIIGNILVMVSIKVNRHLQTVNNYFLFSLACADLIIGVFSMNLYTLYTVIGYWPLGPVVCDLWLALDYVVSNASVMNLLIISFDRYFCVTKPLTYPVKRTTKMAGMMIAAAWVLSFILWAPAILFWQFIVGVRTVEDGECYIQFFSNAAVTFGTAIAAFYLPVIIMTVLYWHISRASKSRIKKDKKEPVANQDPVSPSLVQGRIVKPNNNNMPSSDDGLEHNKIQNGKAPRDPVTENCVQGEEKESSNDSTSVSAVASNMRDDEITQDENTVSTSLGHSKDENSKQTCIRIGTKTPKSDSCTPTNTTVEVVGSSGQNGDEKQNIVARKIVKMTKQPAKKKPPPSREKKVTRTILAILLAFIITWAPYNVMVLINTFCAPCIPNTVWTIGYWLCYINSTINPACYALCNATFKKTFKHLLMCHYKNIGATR

[30] = biological target: Alpha-1B adrenergic receptor (Homo sapiens) (UniProt P35368); test: Inhibition of human Alpha-1B adrenergic receptor expressed in HEK293T cells at 10 uM relative to control; assay type: cell-based
Chain of Alpha-1B adrenergic receptor (Homo sapiens) (P35368 whole entry): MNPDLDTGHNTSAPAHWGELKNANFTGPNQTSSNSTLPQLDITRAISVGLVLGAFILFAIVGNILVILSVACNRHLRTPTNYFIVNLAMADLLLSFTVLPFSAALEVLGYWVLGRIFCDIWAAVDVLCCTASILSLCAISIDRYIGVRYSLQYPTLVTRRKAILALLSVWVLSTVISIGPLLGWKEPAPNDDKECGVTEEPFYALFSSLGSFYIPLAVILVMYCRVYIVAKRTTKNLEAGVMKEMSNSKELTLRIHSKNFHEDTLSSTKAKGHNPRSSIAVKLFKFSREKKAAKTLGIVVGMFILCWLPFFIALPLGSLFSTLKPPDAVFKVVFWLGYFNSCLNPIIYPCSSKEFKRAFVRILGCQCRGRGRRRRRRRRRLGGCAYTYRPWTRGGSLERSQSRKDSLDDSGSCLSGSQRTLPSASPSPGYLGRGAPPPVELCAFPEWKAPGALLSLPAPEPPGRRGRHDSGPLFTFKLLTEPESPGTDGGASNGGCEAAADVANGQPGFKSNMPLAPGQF

[31] = biological target: 5-hydroxytryptamine receptor 5A (Homo sapiens) (UniProt P47898); test: Inhibition of human 5-HT5a at 10 uM relative to control
Chain of 5-hydroxytryptamine receptor 5A (Homo sapiens) (P47898 whole entry): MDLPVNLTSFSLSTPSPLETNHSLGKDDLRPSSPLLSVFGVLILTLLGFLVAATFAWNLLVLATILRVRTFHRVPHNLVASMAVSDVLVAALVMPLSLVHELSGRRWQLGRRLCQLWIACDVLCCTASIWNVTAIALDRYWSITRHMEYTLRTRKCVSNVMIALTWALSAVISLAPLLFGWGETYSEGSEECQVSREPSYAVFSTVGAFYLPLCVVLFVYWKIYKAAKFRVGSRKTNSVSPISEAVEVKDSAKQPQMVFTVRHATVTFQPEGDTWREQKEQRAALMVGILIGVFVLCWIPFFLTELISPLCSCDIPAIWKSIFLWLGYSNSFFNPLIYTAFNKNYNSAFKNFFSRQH

[32] = biological target: Sodium-dependent noradrenaline transporter (Homo sapiens) (UniProt P23975); test: Inhibition of human Norepinephrine transporter at 10 uM relative to control
Homo sapiens = species: Homo sapiens; test: Inhibition of GABAA (unknown origin) at 10 uM relative to control

SMILES	inhibition [1] [%]	inhibition [2] [%]	inhibition [5] [%]	inhibition [6] [%]	inhibition [7] [%]	inhibition [9] [%]	inhibition [10] [%]	inhibition [11] [%]	inhibition [12] [%]	inhibition [15] [%]	inhibition [16] [%]	inhibition [17] [%]	inhibition [18] [%]	inhibition [19] [%]	inhibition [21] [%]	inhibition [23] [%]	inhibition [25] [%]	inhibition [26] [%]	inhibition [27] [%]	inhibition [29] [%]	further results
Clc1cc2c(NC3CCCC3)nnc(-c3ccncc3)c2cc1Cl	-6	9	6	15	10	-8	31	51	16	26	14	-3	1	1	8	26	-9	-1	11	-1	inhibition [3]: -4%; inhibition [4]: 1%; inhibition [8]: inactive; inhibition [13]: inactive; inhibition [14]: inactive; inhibition (U2OS [20]): Active; inhibition [22]: -8%; inhibition [24]: -4%; inhibition (U2OS [28]): Active; inhibition [30]: 1%; inhibition [31]: 9%
O=C(c1nnc(NC2CCCC2)c2cc(Cl)c(Cl)cc12)N1CCC(O)CC1	5	10	-3	-3	-7	1	23	6	4	11	7	-9	-2	3	13	54	-8	8	18	-5	inhibition [32]: 1%; inhibition (Homo sapiens): 25%; inhibition [30]: -4%; inhibition [31]: 2%
